Results taken from patent US10532036B2, “Combination composition” (AFT Pharmaceuticals Ltd, priority 2004, dated 2020).
Where two headings read alike, the source gives them in different places.

Tests used:
[1] = system: pain following wisdom tooth extraction under local anaesthesia; test: pilot study using a dental pain model, visual analogue scale pain scores; format: in vivo, patients; conditions: VAS score, calculated from the trial of Example 5, lower = less pain
Description: Pain scores at rest and on activity were measured by visual analogue scales which were used to derive an area-under-the curve (AUC) pain score. A lower AUC represents better pain relief.
A lower VAS score is consistent with less pain due to better pain relief. […] Pain scores were calculated as means over the first dose interval rather than AUC values to allow comparison with literature values for paracetamol in the dental pain model.

[2] = system: postoperative pain after third molar surgery; conditions: VAS, paracetamol 1000 mg, RA Seymour et al 2003, cited from earlier work

CC(C)Cc1ccc(C(C)C(=O)O)cc1 (stereo not drawn) [Ibuprofen]
Mean Pain Score at Rest (over first dose interval) [1]: 28 mm

CC(=O)Nc1ccc(O)cc1 [Paracetamol]
Mean Pain Score at Rest ([2]; 0-30 minutes): 46-48 mm
Mean Pain Score at Rest ([2]; over 4 hours): 42 mm
